Source: ChEMBL document CHEMBL1201862, “PubChem BioAssay data set” (2004)
Activity calls are given as the source filed them.

Assays:
Format in all cases: functional
[1] = target: Calcium/calmodulin-dependent protein kinase type II subunit delta (Homo sapiens, UniProt Q13557)
[2] = target: Serine/threonine-protein kinase BRSK1 (Homo sapiens, UniProt Q8TDC3);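 further: measured within a kinome-wide kinase panel, with the target listed as KIAA1811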
[3] = target: Casein kinase I isoform gamma-1 (Homo sapiens, UniProt Q9HCP0);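 further: measured as the CSNK1G1 member of a kinome profiling panel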
[4] = target: Dual specificity tyrosine-phosphorylation-regulated kinase 1A (Homo sapiens, UniProt Q13627);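 further: measured against DYRK1A as one member of a broad kinome profiling panel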
[5] = target: Glycogen synthase kinase-3 beta (Homo sapiens, UniProt P49841);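 further: value comes from a broad kinome profiling panel, with GSK3B as the panel member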
[6] = target: Calcium/calmodulin-dependent protein kinase type 1 (Homo sapiens, UniProt Q14012)
[7] = target: Protein kinase C gamma type (Homo sapiens, UniProt P05129)
[8] = target: Protein kinase C delta type (Homo sapiens, UniProt Q05655)
[9] = target: Serine/threonine-protein kinase D3 (Homo sapiens, UniProt O94806);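 further: determined within a kinase panel screen, with PRKCN as the panel member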
[10] = target: Homeodomain-interacting protein kinase 2 (Homo sapiens, UniProt Q9H2X6);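 further: measured within a kinome-wide kinase profiling panel, HIPK2 being one panel member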
[11] = target: Rho-associated protein kinase 1 (Homo sapiens, UniProt Q13464);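 further: measured within a broad kinome-wide panel profiling many kinases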
[12] = target: Mitogen-activated protein kinase 12 (Homo sapiens, UniProt P53778);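 further: measured as one member of a kinome-wide kinase profiling panel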
[13] = target: Testis-specific serine/threonine-protein kinase 1 (Homo sapiens, UniProt Q9BXA7)
[14] = target: Serine/threonine-protein kinase 17A (Homo sapiens, UniProt Q9UEE5)
[15] = target: Interleukin-1 receptor-associated kinase 4 (Homo sapiens, UniProt Q9NWZ3)
[16] = target: Mitogen-activated protein kinase 13 (Homo sapiens, UniProt O15264)
[17] = target: Mitogen-activated protein kinase 8 (Homo sapiens, UniProt P45983);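 further: value comes from one member of a kinome-wide kinase profiling panel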
[18] = target: Phosphorylase b kinase gamma catalytic chain, liver/testis isoform (Homo sapiens, UniProt P15735);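 further: PHKG2 measured as one member of a kinome-wide kinase panel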
[19] = target: RAC-alpha serine/threonine-protein kinase (Homo sapiens, UniProt P31749);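 further: AKT1 affinity measured as one member of a kinome-wide kinase profiling panel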
[20] = target: Serine/threonine-protein kinase PAK 1 (Homo sapiens, UniProt Q13153)
SRSF protein kinase 1 = SRSF protein kinase 1 (Homo sapiens, UniProt Q96SB4);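 further: measured as one member of a kinome-wide kinase profiling panel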
[21] = target: Receptor-type tyrosine-protein kinase FLT3 (Homo sapiens, UniProt P36888);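 further: FLT3 was tested as one member of a kinome-wide kinase panel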
[22] = target: Casein kinase I isoform alpha (Homo sapiens, UniProt P48729)
[23] = target: Mitogen-activated protein kinase 1 (Homo sapiens, UniProt P28482)
[24] = target: Serine/threonine-protein kinase Nek4 (Homo sapiens, UniProt P51957)
[25] = target: RAC-gamma serine/threonine-protein kinase (Homo sapiens, UniProt Q9Y243)
[26] = target: Serine/threonine-protein kinase PAK 4 (Homo sapiens, UniProt O96013);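 further: value obtained within a kinome profiling panel in which PAK4 was one of the panel members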
Chain of Serine/threonine-protein kinase PAK 4 (O96013 whole entry): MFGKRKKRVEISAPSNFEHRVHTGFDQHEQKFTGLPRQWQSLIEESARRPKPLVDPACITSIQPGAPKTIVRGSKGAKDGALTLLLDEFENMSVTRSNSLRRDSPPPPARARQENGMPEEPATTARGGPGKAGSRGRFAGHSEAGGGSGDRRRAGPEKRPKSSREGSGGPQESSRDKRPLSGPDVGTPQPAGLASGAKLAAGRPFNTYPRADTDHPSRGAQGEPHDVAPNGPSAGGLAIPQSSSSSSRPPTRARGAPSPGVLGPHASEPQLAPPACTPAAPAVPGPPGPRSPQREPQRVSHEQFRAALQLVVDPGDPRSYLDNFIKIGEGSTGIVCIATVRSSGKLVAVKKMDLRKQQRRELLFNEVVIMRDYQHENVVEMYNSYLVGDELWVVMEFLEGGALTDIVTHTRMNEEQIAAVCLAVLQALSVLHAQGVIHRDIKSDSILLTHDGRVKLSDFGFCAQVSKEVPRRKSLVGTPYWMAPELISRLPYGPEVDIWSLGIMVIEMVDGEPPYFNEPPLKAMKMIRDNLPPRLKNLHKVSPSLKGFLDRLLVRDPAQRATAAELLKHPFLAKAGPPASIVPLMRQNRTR

Chain of Mitogen-activated protein kinase 13 (O15264 whole entry): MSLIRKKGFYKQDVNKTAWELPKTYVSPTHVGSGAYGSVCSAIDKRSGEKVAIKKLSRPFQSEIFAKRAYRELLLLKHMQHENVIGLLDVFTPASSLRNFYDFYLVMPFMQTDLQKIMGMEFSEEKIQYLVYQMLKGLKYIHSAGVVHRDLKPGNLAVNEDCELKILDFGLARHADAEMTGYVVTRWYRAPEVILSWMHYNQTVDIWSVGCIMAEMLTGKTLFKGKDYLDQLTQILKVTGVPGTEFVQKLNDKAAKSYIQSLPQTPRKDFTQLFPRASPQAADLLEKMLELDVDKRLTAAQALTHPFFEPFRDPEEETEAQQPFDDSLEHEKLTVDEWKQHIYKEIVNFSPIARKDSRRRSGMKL
Chain of Mitogen-activated protein kinase 12 (P53778 whole entry): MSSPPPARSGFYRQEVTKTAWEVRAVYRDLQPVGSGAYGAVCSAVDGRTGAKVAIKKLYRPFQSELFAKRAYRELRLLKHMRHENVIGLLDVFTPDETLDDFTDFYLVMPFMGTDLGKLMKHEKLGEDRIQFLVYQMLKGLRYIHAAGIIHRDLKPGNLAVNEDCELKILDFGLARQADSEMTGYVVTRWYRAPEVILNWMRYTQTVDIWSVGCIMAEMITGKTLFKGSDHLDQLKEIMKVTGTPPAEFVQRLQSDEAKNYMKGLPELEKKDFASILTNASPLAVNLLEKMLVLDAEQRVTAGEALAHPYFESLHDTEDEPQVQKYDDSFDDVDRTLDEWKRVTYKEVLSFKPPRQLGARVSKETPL
Chain of Serine/threonine-protein kinase D3 (O94806 whole entry): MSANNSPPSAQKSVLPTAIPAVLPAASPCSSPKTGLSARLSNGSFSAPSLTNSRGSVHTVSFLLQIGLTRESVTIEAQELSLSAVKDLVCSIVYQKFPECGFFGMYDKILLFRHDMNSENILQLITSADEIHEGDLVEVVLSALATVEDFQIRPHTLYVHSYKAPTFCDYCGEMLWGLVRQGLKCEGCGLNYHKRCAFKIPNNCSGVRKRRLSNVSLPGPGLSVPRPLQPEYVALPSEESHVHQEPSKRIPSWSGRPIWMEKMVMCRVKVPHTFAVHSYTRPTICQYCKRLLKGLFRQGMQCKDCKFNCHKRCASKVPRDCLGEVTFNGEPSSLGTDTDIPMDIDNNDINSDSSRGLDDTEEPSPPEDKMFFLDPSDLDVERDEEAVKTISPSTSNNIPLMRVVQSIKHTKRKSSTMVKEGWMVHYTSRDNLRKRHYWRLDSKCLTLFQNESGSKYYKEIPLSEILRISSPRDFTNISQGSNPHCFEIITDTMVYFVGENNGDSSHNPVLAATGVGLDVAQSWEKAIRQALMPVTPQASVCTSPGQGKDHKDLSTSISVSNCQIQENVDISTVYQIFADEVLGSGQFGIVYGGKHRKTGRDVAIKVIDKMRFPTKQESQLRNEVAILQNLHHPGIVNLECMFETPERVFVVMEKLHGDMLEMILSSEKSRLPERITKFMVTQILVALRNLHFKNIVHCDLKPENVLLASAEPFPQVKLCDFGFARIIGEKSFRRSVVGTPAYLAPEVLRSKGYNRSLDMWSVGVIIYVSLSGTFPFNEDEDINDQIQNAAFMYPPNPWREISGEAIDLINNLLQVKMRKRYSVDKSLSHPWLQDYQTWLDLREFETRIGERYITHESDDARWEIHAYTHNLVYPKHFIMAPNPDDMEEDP
Chain of Serine/threonine-protein kinase 17A (Q9UEE5 whole entry): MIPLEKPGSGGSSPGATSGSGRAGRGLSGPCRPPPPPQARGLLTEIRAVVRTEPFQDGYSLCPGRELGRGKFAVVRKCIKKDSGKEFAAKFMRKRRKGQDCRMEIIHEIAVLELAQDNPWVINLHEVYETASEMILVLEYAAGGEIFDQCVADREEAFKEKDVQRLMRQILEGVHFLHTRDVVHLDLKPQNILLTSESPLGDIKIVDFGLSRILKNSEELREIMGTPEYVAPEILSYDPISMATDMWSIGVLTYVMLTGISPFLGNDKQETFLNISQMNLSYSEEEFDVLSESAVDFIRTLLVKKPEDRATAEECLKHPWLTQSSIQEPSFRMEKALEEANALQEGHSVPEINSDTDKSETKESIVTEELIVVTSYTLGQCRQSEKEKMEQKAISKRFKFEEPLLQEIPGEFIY
Chain of Glycogen synthase kinase-3 beta (P49841 whole entry): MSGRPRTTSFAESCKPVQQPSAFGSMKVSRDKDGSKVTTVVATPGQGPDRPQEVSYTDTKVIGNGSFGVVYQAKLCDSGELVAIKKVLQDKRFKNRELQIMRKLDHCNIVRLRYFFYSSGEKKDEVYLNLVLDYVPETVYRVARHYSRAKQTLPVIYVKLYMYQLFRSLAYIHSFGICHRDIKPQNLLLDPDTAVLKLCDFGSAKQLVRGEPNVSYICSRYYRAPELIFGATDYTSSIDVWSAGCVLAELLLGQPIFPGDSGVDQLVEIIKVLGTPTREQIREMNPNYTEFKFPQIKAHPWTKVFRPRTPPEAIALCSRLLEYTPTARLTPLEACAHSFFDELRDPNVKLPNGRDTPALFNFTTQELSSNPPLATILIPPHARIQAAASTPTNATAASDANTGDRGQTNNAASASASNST
Chain of Serine/threonine-protein kinase BRSK1 (Q8TDC3 whole entry, canonical isoform): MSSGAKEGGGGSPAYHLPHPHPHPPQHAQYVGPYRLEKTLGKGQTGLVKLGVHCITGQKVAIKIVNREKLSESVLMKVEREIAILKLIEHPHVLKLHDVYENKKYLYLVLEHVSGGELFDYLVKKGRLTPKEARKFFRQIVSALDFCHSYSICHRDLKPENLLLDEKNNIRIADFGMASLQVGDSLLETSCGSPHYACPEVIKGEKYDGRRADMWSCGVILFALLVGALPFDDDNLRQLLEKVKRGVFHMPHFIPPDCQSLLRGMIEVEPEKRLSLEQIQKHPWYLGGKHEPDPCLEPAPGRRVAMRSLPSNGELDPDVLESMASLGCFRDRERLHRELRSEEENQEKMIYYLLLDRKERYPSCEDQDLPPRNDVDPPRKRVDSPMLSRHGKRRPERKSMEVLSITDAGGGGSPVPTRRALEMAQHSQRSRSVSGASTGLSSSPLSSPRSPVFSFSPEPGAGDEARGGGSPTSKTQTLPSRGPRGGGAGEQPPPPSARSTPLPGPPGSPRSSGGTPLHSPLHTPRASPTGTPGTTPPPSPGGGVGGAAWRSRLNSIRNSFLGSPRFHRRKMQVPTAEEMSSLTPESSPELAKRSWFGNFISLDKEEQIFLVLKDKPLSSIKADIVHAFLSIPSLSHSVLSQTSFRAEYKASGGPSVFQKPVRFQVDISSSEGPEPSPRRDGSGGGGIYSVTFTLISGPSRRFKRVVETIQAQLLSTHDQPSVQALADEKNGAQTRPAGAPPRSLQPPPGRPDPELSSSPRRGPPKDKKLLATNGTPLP
Chain of Interleukin-1 receptor-associated kinase 4 (Q9NWZ3 whole entry): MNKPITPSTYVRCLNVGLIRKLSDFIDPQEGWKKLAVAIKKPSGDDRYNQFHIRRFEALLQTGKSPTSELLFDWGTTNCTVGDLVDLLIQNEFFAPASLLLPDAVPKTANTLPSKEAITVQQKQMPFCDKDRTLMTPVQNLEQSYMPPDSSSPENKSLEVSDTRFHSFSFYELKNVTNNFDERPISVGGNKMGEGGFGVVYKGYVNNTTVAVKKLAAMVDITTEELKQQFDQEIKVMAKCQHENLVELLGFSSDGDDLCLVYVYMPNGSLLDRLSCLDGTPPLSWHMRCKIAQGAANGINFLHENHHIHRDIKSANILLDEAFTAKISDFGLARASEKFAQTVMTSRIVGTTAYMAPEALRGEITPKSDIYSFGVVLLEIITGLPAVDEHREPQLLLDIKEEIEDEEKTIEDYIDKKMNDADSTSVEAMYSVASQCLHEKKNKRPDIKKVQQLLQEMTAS
Chain of SRSF protein kinase 1 (Q96SB4 whole entry): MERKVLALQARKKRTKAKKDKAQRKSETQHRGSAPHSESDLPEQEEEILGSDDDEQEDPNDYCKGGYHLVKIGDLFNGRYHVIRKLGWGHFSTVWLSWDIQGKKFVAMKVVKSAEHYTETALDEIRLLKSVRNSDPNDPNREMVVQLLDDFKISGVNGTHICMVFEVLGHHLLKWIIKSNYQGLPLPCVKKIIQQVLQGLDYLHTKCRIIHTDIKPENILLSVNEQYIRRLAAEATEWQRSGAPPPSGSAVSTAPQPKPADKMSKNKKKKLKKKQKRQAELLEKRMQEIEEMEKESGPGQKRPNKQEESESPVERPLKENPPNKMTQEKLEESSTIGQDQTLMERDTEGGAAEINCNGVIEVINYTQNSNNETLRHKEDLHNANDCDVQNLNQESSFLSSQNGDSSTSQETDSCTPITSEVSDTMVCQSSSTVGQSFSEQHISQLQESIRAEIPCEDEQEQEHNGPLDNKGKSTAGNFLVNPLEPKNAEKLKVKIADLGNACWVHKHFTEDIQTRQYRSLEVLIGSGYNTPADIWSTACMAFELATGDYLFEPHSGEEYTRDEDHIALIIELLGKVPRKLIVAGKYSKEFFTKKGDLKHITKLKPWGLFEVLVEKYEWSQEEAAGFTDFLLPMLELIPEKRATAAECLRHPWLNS

Ki [1]: > 6.31 µM (inactive)
Ki [2]: > 10 µM (inactive)
Ki [3]: > 6.31 µM (inactive)
Ki [4]: 0.316 µM (active)
Ki [5]: 2.51 µM (active)
Ki [6]: > 5.01 µM (inactive)
Ki [7]: > 7.94 µM (inactive)
Ki [8]: > 7.94 µM (inactive)
Ki [9]: > 10 µM (inactive)
Ki [10]: > 3.16 µM (inactive)
Ki [11]: > 10 µM (inactive)
Ki [12]: > 6.31 µM (inactive)
Ki [13]: > 1.58 µM (inactive)
Ki [14]: > 3.98 µM (inactive)
Ki [15]: > 10 µM (inactive)
Ki [16]: > 7.94 µM (inactive)
Ki [17]: > 3.16 µM (inactive)
Ki [18]: > 5.01 µM (inactive)
Ki [19]: > 7.94 µM (inactive)
Ki [20]: > 10 µM (inactive)
Ki (SRSF protein kinase 1): > 7.94 µM (inactive)
Ki [21]: 0.631 µM (active)
Ki [22]: > 6.31 µM (inactive)
Ki [23]: > 7.94 µM (inactive)
Ki [24]: > 6.31 µM (inactive)
Ki [25]: > 10 µM (inactive)
Ki [26]: > 5.01 µM (inactive)
Compound: Cn1cncc1C(OCc1c(-c2ccc(OC(F)(F)F)cc2)cc(C#N)c(=O)n1C)c1ccc(C#N)cc1 (configuration not stated)
